Experimental findings from ChEMBL document CHEMBL1201862, “PubChem BioAssay data set” (2004) are described below.

The structures appear in SMILES notation. Calls of active or inactive are those of the source. Bounds are passed on as bounds.

In general, IC50 refers to the point on the concentration scale where inhibition reaches its midpoint.

The target in one test is T1, Orexin receptor type 2 (Homo sapiens, UniProt O43614).
T1 sequence (O43614 whole entry): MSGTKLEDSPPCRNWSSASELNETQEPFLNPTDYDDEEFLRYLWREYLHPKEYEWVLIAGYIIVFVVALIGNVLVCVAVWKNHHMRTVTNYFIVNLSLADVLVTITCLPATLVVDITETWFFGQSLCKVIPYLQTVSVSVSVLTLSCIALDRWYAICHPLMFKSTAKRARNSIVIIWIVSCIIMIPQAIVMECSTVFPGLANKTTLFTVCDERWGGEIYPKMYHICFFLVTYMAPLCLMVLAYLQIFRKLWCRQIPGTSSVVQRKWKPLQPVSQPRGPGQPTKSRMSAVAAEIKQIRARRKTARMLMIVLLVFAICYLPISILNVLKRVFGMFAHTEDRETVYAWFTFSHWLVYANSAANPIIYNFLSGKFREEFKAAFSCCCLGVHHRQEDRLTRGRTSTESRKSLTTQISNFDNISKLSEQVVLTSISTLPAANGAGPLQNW
As to the kind of experiment: Counterscreen assay for antagonists of the orexin 1 receptor (OX1R; HCRTR1): Homogeneous Time Resolved Fluorescence (HTRF)-based cell-based dose response assay for antagonists of the orexin 2 receptor (OX2R; HCRTR2), run by assay provider.
Details: not given
The test is classed as functional. In general terms: The purpose of a counterscreen is to sort out artefacts and off-target activity.
On to `COc1ccc(OC)c(S(=O)(=O)NCC(c2ccco2)N2CCc3ccccc32)c1` (stereo not drawn), for which the IC50 is > 50 µM (inactive).

The next test addresses T2, Caspase-3 (Homo sapiens, UniProt P42574).
T2 sequence (P42574 whole entry): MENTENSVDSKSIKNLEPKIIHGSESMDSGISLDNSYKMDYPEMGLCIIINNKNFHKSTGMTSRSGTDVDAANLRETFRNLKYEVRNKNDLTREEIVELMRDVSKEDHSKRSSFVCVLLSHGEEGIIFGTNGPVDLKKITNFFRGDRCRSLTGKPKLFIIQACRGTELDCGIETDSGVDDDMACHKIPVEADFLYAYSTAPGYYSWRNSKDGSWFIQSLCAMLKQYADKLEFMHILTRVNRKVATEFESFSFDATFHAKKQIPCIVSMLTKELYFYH
In words: SAR Analysis of small molecule inhibitors of Sentrin-specific proteases (SENPs) using a Caspase-3 Selectivity assay. [Related pubchem assays (depositor defined):AID2540, AID2599, AID434973, AID489001]. The class given is functional.
Details: not given
Take `NC(=O)c1ccc(NC(=O)c2ccc3c(c2)OCO3)cc1`: the 50% inhibitory concentration (IC50) is 7.08 µM (active).
`Brc1ccc(-c2nc(/C=C/c3ccccc3)no2)cc1`: the IC50 is > 99 µM (inactive).
As for `COC(=O)c1ccccc1NC1=C/C(=N/S(=O)(=O)c2cccs2)c2ccccc2C1=O`, the IC50 was 24.5 µM (active).

A further test has as its target T3, Sentrin-specific protease 7 (Homo sapiens, UniProt Q9BQF6).
T3 sequence (Q9BQF6 whole entry): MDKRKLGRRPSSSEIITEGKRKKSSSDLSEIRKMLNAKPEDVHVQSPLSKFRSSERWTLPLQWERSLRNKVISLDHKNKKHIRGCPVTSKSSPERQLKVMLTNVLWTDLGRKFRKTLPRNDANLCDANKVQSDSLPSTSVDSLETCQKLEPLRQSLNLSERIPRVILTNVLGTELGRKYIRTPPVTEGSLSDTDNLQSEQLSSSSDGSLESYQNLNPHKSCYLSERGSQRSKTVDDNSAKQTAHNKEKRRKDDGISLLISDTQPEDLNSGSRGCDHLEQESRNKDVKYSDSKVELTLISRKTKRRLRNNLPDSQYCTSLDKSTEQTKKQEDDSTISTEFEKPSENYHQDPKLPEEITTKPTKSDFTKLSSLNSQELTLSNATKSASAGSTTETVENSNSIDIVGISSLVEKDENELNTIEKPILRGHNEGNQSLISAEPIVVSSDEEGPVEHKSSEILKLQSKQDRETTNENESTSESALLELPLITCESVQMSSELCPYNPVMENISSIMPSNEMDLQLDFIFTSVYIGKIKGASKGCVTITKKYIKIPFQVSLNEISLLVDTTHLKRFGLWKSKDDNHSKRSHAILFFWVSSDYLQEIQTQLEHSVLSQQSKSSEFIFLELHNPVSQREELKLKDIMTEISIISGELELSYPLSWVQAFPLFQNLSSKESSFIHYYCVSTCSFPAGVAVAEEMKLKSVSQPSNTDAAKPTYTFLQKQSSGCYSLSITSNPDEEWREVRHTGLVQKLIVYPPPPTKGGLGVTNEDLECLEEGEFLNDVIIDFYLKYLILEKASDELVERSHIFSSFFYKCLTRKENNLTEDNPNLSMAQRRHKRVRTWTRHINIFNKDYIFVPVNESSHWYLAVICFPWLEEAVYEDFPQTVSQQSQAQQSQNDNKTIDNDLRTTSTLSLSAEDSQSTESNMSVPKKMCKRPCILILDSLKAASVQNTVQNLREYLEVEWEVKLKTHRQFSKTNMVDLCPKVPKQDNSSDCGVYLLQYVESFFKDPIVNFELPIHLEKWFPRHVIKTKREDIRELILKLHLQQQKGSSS
In words: SENP7 protease inhibitors, SAR follow-up, biochemical, luminescence (AID 504497). The test is classed as functional.
Details: not given
With `NC(=O)c1ccc(NC(=O)c2ccc3c(c2)OCO3)cc1`, the half-maximal inhibitory concentration (IC50) is 12.9 µM (active).
On the same count and under the same terms, with `Brc1ccc(-c2nc(/C=C/c3ccccc3)no2)cc1` the figure was > 99 µM (inactive).
Still for that read-out and setting: with `COC(=O)c1ccccc1NC1=C/C(=N/S(=O)(=O)c2cccs2)c2ccccc2C1=O` the figure was 2.42 µM (active).

A further test relates to CHO-K1. As to the kind of experiment: Counterscreen for antagonists of the orexin 1 receptor (OX1R; HCRTR1): Homogeneous time resolved fluorescence (HTRF)-based cell-based dose response assay to identify antagonists of the parental CHO-K1 cell line. [Related pubchem assays (depositor defined):AID434989, AID435008, AID463079, AID485270, AID492963, AID492964, AID492965, AID493232, AID504699, AID504701]. The class given is functional. The settings on record: Cricetulus griseus.
Consider `COc1ccc(OC)c(S(=O)(=O)NCC(c2ccco2)N2CCc3ccccc32)c1` (stereo not drawn), for which the IC50 was > 66.2 µM (inactive).

The target in a further test is T4, Sentrin-specific protease 6 (Homo sapiens, UniProt Q9GZR1).
T4 sequence (Q9GZR1 whole entry): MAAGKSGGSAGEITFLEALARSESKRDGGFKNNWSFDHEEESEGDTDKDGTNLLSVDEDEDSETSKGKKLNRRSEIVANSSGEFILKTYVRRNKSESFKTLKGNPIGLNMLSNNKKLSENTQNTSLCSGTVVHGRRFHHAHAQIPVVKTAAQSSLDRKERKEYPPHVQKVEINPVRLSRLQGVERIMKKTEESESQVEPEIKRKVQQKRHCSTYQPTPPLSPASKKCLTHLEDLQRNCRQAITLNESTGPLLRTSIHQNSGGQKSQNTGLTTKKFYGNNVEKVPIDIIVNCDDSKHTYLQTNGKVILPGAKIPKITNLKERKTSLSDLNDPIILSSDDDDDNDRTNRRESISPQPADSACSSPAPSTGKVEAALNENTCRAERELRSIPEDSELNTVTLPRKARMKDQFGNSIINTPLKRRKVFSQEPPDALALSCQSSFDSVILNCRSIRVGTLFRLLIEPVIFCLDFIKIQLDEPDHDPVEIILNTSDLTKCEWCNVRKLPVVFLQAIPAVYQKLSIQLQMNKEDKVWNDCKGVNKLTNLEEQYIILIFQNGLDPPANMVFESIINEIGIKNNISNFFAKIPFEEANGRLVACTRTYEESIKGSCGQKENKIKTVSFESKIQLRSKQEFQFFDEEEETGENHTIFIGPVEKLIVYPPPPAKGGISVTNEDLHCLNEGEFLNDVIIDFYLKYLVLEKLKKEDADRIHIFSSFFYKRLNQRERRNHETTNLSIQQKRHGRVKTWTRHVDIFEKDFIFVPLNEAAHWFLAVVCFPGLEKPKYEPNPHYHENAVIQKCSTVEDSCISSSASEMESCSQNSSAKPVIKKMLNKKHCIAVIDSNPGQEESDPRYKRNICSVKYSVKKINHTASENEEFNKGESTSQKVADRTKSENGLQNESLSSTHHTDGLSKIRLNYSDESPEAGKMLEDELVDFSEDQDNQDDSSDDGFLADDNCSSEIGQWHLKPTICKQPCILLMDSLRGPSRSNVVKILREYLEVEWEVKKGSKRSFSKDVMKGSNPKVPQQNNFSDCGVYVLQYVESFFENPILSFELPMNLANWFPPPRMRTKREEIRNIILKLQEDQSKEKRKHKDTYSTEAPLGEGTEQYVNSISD
As to the kind of experiment: SAR Analysis of small molecule inhibitors of Sentrin-specific protease 6 (SENP6) using a Luminescent assay. [Related pubchem assays (depositor defined):AID2582, AID2599]. The class given is functional.
Details: not given
Consider `NC(=O)c1ccc(NC(=O)c2ccc3c(c2)OCO3)cc1`, for which the IC50 is > 99 µM (inactive).
Turning to `Brc1ccc(-c2nc(/C=C/c3ccccc3)no2)cc1`, the IC50 was > 99 µM (inactive).
The same measure, in the same setting: with `COC(=O)c1ccccc1NC1=C/C(=N/S(=O)(=O)c2cccs2)c2ccccc2C1=O` the figure was 2.15 µM (active).

In the next test the target is T1, Orexin receptor type 2. In words: Counterscreen assay for antagonists of the orexin 1 receptor (OX1R; HCRTR1): Fluorescence-based cell-based dose response assay for antagonists of the orexin 2 receptor (OX2R; HCRTR2), run by assay provider. The test is classed as functional.
Details: not given
For the molecule `COc1ccc(OC)c(S(=O)(=O)NCC(c2ccco2)N2CCc3ccccc32)c1` (stereo not drawn), the IC50 is 10.5 µM (inactive).

The target of another test is T5, Orexin/Hypocretin receptor type 1 (Homo sapiens, UniProt O43613).
T5 sequence (O43613 whole entry): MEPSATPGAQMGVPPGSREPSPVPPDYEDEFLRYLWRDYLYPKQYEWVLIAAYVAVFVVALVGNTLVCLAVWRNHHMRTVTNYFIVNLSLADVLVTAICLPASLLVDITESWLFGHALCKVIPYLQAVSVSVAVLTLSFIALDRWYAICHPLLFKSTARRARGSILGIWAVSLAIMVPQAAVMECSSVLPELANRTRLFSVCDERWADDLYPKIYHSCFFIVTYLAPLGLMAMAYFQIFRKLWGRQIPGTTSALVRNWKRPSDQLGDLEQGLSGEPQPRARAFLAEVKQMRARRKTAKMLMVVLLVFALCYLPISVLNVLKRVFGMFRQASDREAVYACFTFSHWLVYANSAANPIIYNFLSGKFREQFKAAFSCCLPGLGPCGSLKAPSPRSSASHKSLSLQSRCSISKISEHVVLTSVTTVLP
As to the kind of experiment: Fluorescence-based cell-based high throughput dose response assay for antagonists of the orexin 1 receptor (OX1R; HCRTR1). [Related pubchem assays (depositor defined):AID434989, AID435008, AID463079, AID485270, AID492963, AID492964, AID492965, AID493232, AID504717, AID504718]. The class given is functional.
Details: not given
Turning to `COc1ccc(OC)c(S(=O)(=O)NCC(c2ccco2)N2CCc3ccccc32)c1` (stereo not drawn), the IC50 is 2 µM (active).

In the next test the target is T6, Sentrin-specific protease 8 (Homo sapiens, UniProt Q96LD8).
T6 sequence (Q96LD8 whole entry): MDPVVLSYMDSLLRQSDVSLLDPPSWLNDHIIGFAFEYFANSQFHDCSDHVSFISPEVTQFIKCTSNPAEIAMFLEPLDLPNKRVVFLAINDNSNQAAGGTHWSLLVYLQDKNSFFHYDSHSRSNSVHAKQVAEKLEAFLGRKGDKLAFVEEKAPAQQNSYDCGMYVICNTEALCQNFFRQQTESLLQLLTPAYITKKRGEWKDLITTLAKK
In words: SENP8 protease inhibitors, SAR follow-up, biochemical, luminescence (AID 504501). The test is classed as functional.
Details: not given
Turning to `NC(=O)c1ccc(NC(=O)c2ccc3c(c2)OCO3)cc1`, the IC50 was > 99 µM (inactive).
Regarding `Brc1ccc(-c2nc(/C=C/c3ccccc3)no2)cc1`, the IC50 is > 99 µM (inactive).
On the same count and under the same terms, under `COC(=O)c1ccccc1NC1=C/C(=N/S(=O)(=O)c2cccs2)c2ccccc2C1=O` stands 4.02 µM (active).

The next test addresses T5, Orexin/Hypocretin receptor type 1. In words: Homogeneous Time Resolved Fluorescence (HTRF)-based cell-based high throughput dose response assay for antagonists of the orexin 1 receptor (OX1R; HCRTR1). [Related pubchem assays (depositor defined):AID434989, AID435008, AID463079, AID485270, AID492963, AID492964, AID492965, AID493232, AID504717, AID504718]. The class given is functional.
Details: not given
On the technique in general: In TR-FRET formats the signal depends on donor and acceptor labels being close together.
Regarding `COc1ccc(OC)c(S(=O)(=O)NCC(c2ccco2)N2CCc3ccccc32)c1` (stereo not drawn), the concentration for half-maximal inhibition (IC50) is 2.3 µM (active).

System in the next test: not listed separately
In words: Counterscreen for antagonists of the orexin 1 receptor (OX1R; HCRTR1): Fluorescence-based cell-based high throughput dose response assay to identify antagonists of the parental CHO cell line. [Related pubchem assays (depositor defined):AID434989, AID435008, AID463079, AID485270, AID492963, AID492964, AID492965, AID493232, AID504699, AID504701].
Details: not given
The class given is functional.
For `COc1ccc(OC)c(S(=O)(=O)NCC(c2ccco2)N2CCc3ccccc32)c1` (stereo not drawn), the IC50 is > 49.8 µM (inactive).
